Consider five compounds from publication PMC5567816 (ACS chemical biology, 2017).

By IC50 is commonly meant the point on the concentration scale where inhibition reaches its midpoint.

One data set has as its system HCT116 and HT29 cells. The following applies: 2 μM for 24 h; cited from earlier work.
The subject of data set [1] is Hek293 cells. The data set is described as follows: global formylation levels of Hek293 cells. Type of data set: cell-based. The note with it: inhibitors 1 μM, tubA 0.5 μM, 24 h.
For data set [2], the system named is Hek293 cells. Nature of the data set: global valerylation levels of Hek293 cells. The note with it: inhibitors 1 μM, tubA 0.5 μM, 24 h. Type of data set: cell-based.
A further data set relates to Hek293 lysates. The data set is described as follows: deacylase activities of Hek293 lysates with inhibitors. The note with it: 24 h; vorinostat and PD-106 1 μM, tubA 0.5 μM. The class given is cell-based.
The next data set has as its system HDAC6. The following applies: HDAC6 specific inhibitor; cited from earlier work.
Data set [3] deals with RAW264.7 cells. The data set is described as follows: Western blot of RAW264.7 cells, protein acetylation. Type of data set: cell-based. The following applies: tubA at 0.5 μM.
The test system of data set [4] is Hek293 cells. The data set is described as follows: Western blot of Hek293 cells, histone and tubulin acetylation. The class given is cell-based. The following applies: inhibitors 1 μM, tubA 0.5 μM, 24 h.
The test system of another data set is class IIa HDACs. The note with it: cited from earlier work.
For another data set, the system named is RAW264.7 macrophages. The data set is described as follows: NO production in LPS-challenged RAW264.7 macrophages. Type of data set: cell-based. The following applies: 1 μM; decrease completely offset when normalized.
Data set [5] deals with RAW264.7 cells. The data set is described as follows: cell viability of RAW264.7 cells. The class given is cell-based.
The subject of the next data set is A549 cell line. The note with it: reasonable concentrations; cited from earlier work.
Data set [6] concerns RAW264.7 cells. The data set is described as follows: HMGB-1 secretion from activated RAW264.7 cells. Type of data set: cell-based. The following applies: LPS-activated RAW264.7; 6 h.
The test system of data set [7] is RAW264.7 cells. Nature of the data set: p65 and HDAC3 subcellular localization in LPS-treated RAW264.7 cells. The note with it: after LPS treatment. Type of data set: cell-based.
The target of a further data set is HDAC3 (Homo sapiens, UniProt O15379). The data set is described as follows: HDAC3 coincubated with TFA substrate and inhibitor.

“Also recorded” adds a separate entry of the source.

Sequence of HDAC3 (O15379 whole entry): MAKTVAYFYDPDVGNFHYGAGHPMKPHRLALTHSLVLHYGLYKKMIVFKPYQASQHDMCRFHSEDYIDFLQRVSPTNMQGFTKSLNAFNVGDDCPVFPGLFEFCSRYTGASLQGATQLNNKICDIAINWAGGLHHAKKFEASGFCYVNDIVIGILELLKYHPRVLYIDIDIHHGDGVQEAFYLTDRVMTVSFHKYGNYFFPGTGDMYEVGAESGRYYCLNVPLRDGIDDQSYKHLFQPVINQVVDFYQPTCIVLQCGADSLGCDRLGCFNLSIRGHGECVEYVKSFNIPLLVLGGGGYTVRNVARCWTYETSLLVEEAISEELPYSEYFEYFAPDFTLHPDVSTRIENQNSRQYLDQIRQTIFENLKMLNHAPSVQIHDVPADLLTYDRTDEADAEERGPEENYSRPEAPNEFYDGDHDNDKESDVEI
Sequence of HDAC3 (Q9Y618 395-489 partner limits assumed): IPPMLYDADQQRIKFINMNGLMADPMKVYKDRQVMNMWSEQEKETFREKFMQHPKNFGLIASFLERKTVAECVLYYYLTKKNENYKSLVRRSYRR

Consider `CN1CCc2c(c3ccccc3n2Cc2ccc(C(=O)NO)cc2)C1` [Tubastatin A], for which the “p53 Lys382 acetylation” value in the data set with HCT116 and HT29 cells is recorded as “able to induce hyperacetylation of Lys382”. Also, the global protein formylation entry in the data set with Hek293 cells [1] is “induced global protein hyperformylation”. In addition, the global protein valerylation entry in the data set with Hek293 cells [2] was “nonsignificant hypovalerylation”. In the data set on Hek293 lysates, the “deacetylase activity of Hek293 lysates” value is given as “did not affect overall deacetylation activity; also recorded: no effect on deacetylation or devalerylation”, the “deformylase activity of Hek293 lysates” value is recorded as “did lower deformylation activity” and the “devalerylase activity of Hek293 lysates” value is listed as “no effect on deacetylation or devalerylation”. Also, in the data set with HDAC6, the IC50 was […]. Besides, the “p53 Lys382 acetylation” value with RAW264.7 cells [3] is recorded as “do not demonstrate this increase”. Also, in the data set on Hek293 cells [4], the “histone H3 and H4 acetylation” value is given as “only affected acetylated tubulin levels”; the tubulin acetylation result is on record as “only affected acetylated tubulin levels”.
Consider `O=C(NO)C(c1ccccc1)c1ccccc1` [dPAHA, diphenyl acetic hydroxamic acid], for which the “inhibitory activity for class IIa HDACs” value in the data set on class IIa HDACs was “only possesses the ability to inhibit class IIa HDACs”.
Take `Nc1ccccc1NC(=O)c1ccc(CNC(=O)OCc2cccnc2)cc1` [entinostat]: in the data set on RAW264.7 macrophages, the “NO release, before normalization to cell count/viability” value is “did lower NO release”. The global protein formylation entry in the data set on Hek293 cells [1] was “also capable of this effect”. Further, the global protein valerylation result with Hek293 cells [2] is listed as “global protein hypervalerylation”. In addition, in the data set with RAW264.7 cells [5], the “lethality (cell viability)” value was “more lethal than 2a–2c”. In the data set on Hek293 cells [4], the “histone H3 and H4 acetylation” value is reported as “induced hyperacetylation of histones”; the tubulin acetylation entry is “without affecting tubulin acetylation levels”.
In the case of `C/C=C1\NC(=O)[C@H]2CSSCC/C=C/[C@H](CC(=O)N[C@H](C(C)C)C(=O)N2)OC(=O)[C@H](C(C)C)NC1=O` [romidepsin], the “p53 Lys373 and Lys382 acetylation” value in the data set on A549 cell line is “induce hyperacetylation of Lys373 and Lys382”.
With `O=C(CCCCCCC(=O)Nc1ccccc1)NO` [vorinostat], in the data set on RAW264.7 macrophages, the “NO release, before normalization to cell count/viability” value is “did lower NO release”. Moreover, in the data set with RAW264.7 cells [6], the HMGB-1 secretion result was “prevents HMGB-1 secretion”. The “nuclear localization of HDAC3” value in the data set with RAW264.7 cells [7] is listed as “not as pronounced”. Besides, the global protein formylation result in the data set with Hek293 cells [1] is recorded as “caused global protein hyperformylation”. Also, the global protein valerylation entry in the data set with Hek293 cells [2] was “global protein hypervalerylation”. In the data set with Hek293 lysates, the “deacetylase activity of Hek293 lysates” value is “inhibit both deacetylation and deformylation; also recorded: lowering in both deacetylation and devalerylation”; the “deformylase activity of Hek293 lysates” value is “inhibit both deacetylation and deformylation”; the “devalerylase activity of Hek293 lysates” value was “lowering in both deacetylation and devalerylation”. Further, at HDAC3, the “effect on HDAC3's ability to deacylate the TFA substrate” value is on record as “capable of altering HDAC3’s ability to deacylate the TFA substrate”. Further, the “lethality (cell viability)” value in the data set on RAW264.7 cells [5] is given as “more lethal than 2a–2c”. In addition, in the data set on Hek293 cells [4], the “histone H3 and H4 acetylation” value was “induced hyperacetylation of tubulin and histones H3 and H4”; the tubulin acetylation entry is “induced hyperacetylation of tubulin and histones H3 and H4”.
